Results on 29 molecules are retold here after patent publication US20110098288A1, “SULFONAMIDES AS ZAP-70 INHIBITORS” (priority 2008, published 2011).

pIC50: −log10 of the molar value. Counter-ions that a name gives are not always drawn.

This experiment concerns the target T1, ZAP-70 (Homo sapiens, UniProt P43403).
T1 construct: endogenous in cells; host or cells: cell lysate
T1 sequence (P43403 1-619): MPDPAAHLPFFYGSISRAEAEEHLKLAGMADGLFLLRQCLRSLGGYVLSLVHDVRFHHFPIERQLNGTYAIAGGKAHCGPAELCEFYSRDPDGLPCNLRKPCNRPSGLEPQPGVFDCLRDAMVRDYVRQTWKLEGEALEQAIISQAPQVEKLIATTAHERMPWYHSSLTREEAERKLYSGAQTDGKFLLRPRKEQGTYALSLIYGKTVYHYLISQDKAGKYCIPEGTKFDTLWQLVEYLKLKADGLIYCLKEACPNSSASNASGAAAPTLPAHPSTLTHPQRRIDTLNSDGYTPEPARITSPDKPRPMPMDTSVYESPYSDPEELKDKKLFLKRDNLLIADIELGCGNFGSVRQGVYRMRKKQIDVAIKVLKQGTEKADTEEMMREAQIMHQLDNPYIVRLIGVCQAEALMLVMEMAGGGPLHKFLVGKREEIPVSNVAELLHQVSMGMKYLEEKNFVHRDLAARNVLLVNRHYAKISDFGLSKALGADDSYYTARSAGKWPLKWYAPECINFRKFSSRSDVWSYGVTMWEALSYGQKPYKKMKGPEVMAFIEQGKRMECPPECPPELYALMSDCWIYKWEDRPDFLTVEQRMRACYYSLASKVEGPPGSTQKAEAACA
As to the kind of experiment: ZAP-70 kinobeads assay. It is filed as binding. The conditions noted are these: competition with immobilized aminopyrido-pyrimidine ligand 24 in cell lysate; ZAP-70 detected by dot blot. As to the method:
The compounds of the present invention as described in the previous examples can be tested in the ZAP-70 kinobeads assay as described (EP-A 1862802 and WO-A 2007/137867). Briefly, test compounds (at various concentrations) and the affinity matrix with the immobilized aminopyrido-pyrimidine ligand 24 are added to cell lysate aliquots and allowed to bind to the proteins in the lysate sample. After the incubation time the beads with captured proteins are separated from the lysate. Bound proteins are then eluted and the presence ZAP-70 is detected and quantified using a specific antibody in a dot blot procedure and the Odyssey infrared detection system. Conventionally, ZAP-70 kinase activity can be measured using purified or recombinant enzyme in a solution-based assay with protein or peptide substrates (Isakov et al., 1996, J. Biol. Chem. 271(26), 15753-15761; Moffat et al., 1999, Bioorg. Med. Chem. Letters 9, 3351-3356).
Turning to `CS(=O)(=O)Nc1ccccc1Nc1nc(Nc2cccc(OCC(=O)O)c2)ncc1F` [Example 99, 2-(3-(5-fluoro-4-(2-(methylsulfonamido)phenylamino)pyrimidin-2-ylamino)phenoxy)acetic acid hydrochloride], the negative-log IC50 (pIC50) was 6.00 to 7.00.

`CCN(CC)C(=O)COc1cccc(Nc2ncc(F)c(Nc3ccccc3NS(C)(=O)=O)n2)c1` [Example 100, N,N-diethyl-2-(3-(5-fluoro-4-(2-(methylsulfonamido)phenylamino)pyrimidin-2-ylamino)phenoxy)acetamide 2,2,2-trifluoroacetate] showed a negative-log IC50 (pIC50) of 6.00 to 7.00.

`CS(=O)(=O)Nc1ccccc1Nc1nc(Nc2ccccc2)ncc1Br` [Example 102, N-(2-(5-bromo-2-(phenylamino)pyrimidin-4-ylamino)phenyl)methanesulfonamide hydrochloride] showed a pIC50 of 6.00 to 7.00.

The molecule `CS(=O)(=O)Nc1ccccc1Nc1nc(Nc2cccc(OC(F)F)c2)ncc1Br` [Example 103, N-(2-(5-bromo-2-(3-(difluoromethoxy)phenylamino)pyrimidin-4-ylamino)phenyl)methanesulfonamide] gave a pIC50 of 6.00 to 7.00.

Molecule `COc1ccc(Nc2ncc(F)c(Nc3ccccc3N(C)S(C)(=O)=O)n2)cc1` [Example 108, N-(2-(5-fluoro-2-(4-methoxyphenylamino)pyrimidin-4-ylamino)phenyl)-N-methylmethanesulfonamide] showed a negative logarithm of the IC50 (pIC50) of 5.00 to 6.00.

`COc1ccc(Nc2ncc(F)c(Nc3ccccc3N(C)S(C)(=O)=O)n2)cc1OC` [Example 109, N-(2-(2-(3,4-dimethoxyphenylamino)-5-fluoropyrimidin-4-ylamino)phenyl)-N-methylmethanesulfonamide] had a pIC50 of 6.00 to 7.00.

`CN(c1ccccc1Nc1nc(Nc2ccc(OCCN3CCCCC3)cc2)ncc1F)S(C)(=O)=O` [Example 110, N-(2-(5-fluoro-2-(4-(2-(piperidin-1-yl)ethoxy)phenylamino)pyrimidin-4-ylamino)phenyl)-N-methylmethanesulfonamide] gave a negative logarithm of the IC50 (pIC50) of 6.00 to 7.00.

The molecule `CN(c1ccccc1Nc1nc(Nc2ccc(OCCN3CCOCC3)cc2)ncc1F)S(C)(=O)=O` [Example 111, N-(2-(5-fluoro-2-(4-(2-morpholinoethoxy)phenylamino)pyrimidin-4-ylamino)phenyl)-N-methylmethanesulfonamide] had a negative-log IC50 (pIC50) of 6.00 to 7.00.

`COCCOc1cccc(Nc2ncc(F)c(Nc3cccc(C)c3NS(C)(=O)=O)n2)c1` [Example 115, N-(2-(5-fluoro-2-(3-(2-methoxyethoxy)phenylamino)pyrimidin-4-ylamino)-6-methylphenyl)methanesulfonamide] had a negative logarithm of the IC50 (pIC50) of 6.00 to 7.00.

In turn, `COc1cc(Nc2ncc(F)c(Nc3cccc(C)c3NS(C)(=O)=O)n2)cc(OCC(C)C)c1OC` [Example 119, N-(2-(5-fluoro-2-(3-isobutoxy-4,5-dimethoxyphenylamino)pyrimidin-4-ylamino)-6-methylphenyl)methanesulfonamide] showed a pIC50 of 6.00 to 7.00.

`COc1cc(Nc2ncc(F)c(Nc3cccc(C)c3NS(C)(=O)=O)n2)cc(OCC2CC2)c1OC` [Example 120, N-(2-(2-(3-(cyclopropylmethoxy)-4,5-dimethoxyphenylamino)-5-fluoropyrimidin-4-ylamino)-6-methylphenyl)methanesulfonamide]: the pIC50 is 6.00 to 7.00.

Turning to `Cc1cccc(Nc2nc(Nc3cccc(OC(C)C)c3)ncc2F)c1NS(C)(=O)=O` [Example 121, N-(2-(5-fluoro-2-(3-isopropoxyphenylamino)pyrimidin-4-ylamino)-6-methylphenyl)methanesulfonamide], the pIC50 was 5.00 to 6.00.

As to `CCCOc1cccc(Nc2ncc(F)c(Nc3cccc(C)c3NS(C)(=O)=O)n2)c1` [Example 122, N-(2-(5-fluoro-2-(3-propoxyphenylamino)pyrimidin-4-ylamino)-6-methylphenyl)methanesulfonamide], the negative-log IC50 (pIC50) was 5.00 to 6.00.

Turning to `CS(=O)(=O)Nc1ccccc1Nc1nc(Nc2cccc(OCCC3CCCN3)c2)ncc1Cl` (centres unmarked) [Example 131, N-(2-(5-chloro-2-(3-(2-(pyrrolidin-2-yl)ethoxy)phenylamino)pyrimidin-4-ylamino)phenyl)methanesulfonamide], the pIC50 was > 7.00.

With `CS(=O)(=O)Nc1ccccc1Nc1nc(Nc2cccc(OCCN3CCNCC3)c2)ncc1Cl` [Example 133, N-(2-(5-chloro-2-(3-(2-(piperazin-1-yl)ethoxy)phenylamino)pyrimidin-4-ylamino)phenyl)methanesulfonamide trifluoroacetate], the pIC50 is > 7.00.

In turn, `CC(C)OC(=O)COc1ccc(Nc2ncc(Cl)c(Nc3ccccc3NS(C)(=O)=O)n2)cc1` [Example 143, Isopropyl 2-(4-(5-chloro-4-(2-(methylsulfonamido)phenylamino)pyrimidin-2-ylamino)-phenoxy)acetate hydrochloride] gave a negative-log IC50 (pIC50) of 6.00 to 7.00.

The molecule `CCOC(=O)COc1ccc(Nc2ncc(F)c(Nc3ccccc3NS(C)(=O)=O)n2)cc1` [Example 144, Ethyl 2-(4-(5-fluoro-4-(2-(methylsulfonamido)phenylamino)pyrimidin-2-ylamino)phenoxy)acetate hydrochloride] gave a negative logarithm of the IC50 (pIC50) of 5.00 to 6.00.

As for `CS(=O)(=O)Nc1ccccc1Nc1nc(Nc2ccc(CC(=O)O)cc2)ncc1Cl` [Example 148, 2-(4-(5-chloro-4-(2-(methylsulfonamido)phenylamino)pyrimidin-2-ylamino)phenyl)acetic acid], the pIC50 was > 7.00.

In the case of `CS(=O)(=O)Nc1ccccc1Nc1nc(Nc2cccc(OCC(=O)O)c2)ncc1Cl` [Example 149, 2-(3-(5-chloro-4-(2-(methylsulfonamido)phenylamino)pyrimidin-2-ylamino)phenoxy)acetic acid hydrochloride], the negative logarithm of the IC50 (pIC50) is 6.00 to 7.00.

`COc1ccc(Nc2nc(Nc3ccc(OC)c(OC)c3)ncc2Cl)c(NS(C)(=O)=O)c1` [Example 153, N-(2-(5-chloro-2-(3,4-dimethoxyphenylamino)pyrimidin-4-ylamino)-5-methoxyphenyl)methanesulfonamide]: the pIC50 is > 7.00.

With `CCN(c1ccccc1Nc1nc(Nc2cc(C)cc(C)c2)ncc1F)S(C)(=O)=O` [Example 155, N-(2-(2-(3,5-dimethylphenylamino)-5-fluoropyrimidin-4-ylamino)phenyl)-N-ethylmethanesulfonamide], the pIC50 was 5.00 to 6.00.

For the molecule `CCN(c1ccccc1Nc1nc(Nc2ccc(OC)cc2)ncc1F)S(C)(=O)=O` [Example 156, N-ethyl-N-(2-(5-fluoro-2-(4-methoxyphenylamino)pyrimidin-4-ylamino)phenyl)methanesulfonamide], the pIC50 is 6.00 to 7.00.

`CCN(c1ccccc1Nc1nc(Nc2ccc(OC)c(OC)c2)ncc1F)S(C)(=O)=O` [Example 157, N-(2-(2-(3,4-dimethoxyphenylamino)-5-fluoropyrimidin-4-ylamino)phenyl)-N-ethylmethanesulfonamide] showed a pIC50 of 5.00 to 6.00.

`CCN(c1ccccc1Nc1nc(Nc2ccc(OCCN3CCOCC3)cc2)ncc1F)S(C)(=O)=O` [Example 159, N-ethyl-N-(2-(5-fluoro-2-(4-(2-morpholinoethoxy)phenylamino)pyrimidin-4-ylamino)phenyl)methanesulfonamide] gave a pIC50 of 6.00 to 7.00.

For `COc1ccc(Nc2nc(Nc3cc(OC)c(OC)c(OC)c3)ncc2F)c(NS(C)(=O)=O)c1C` [Example 163, N-(6-(5-fluoro-2-(3,4,5-trimethoxyphenylamino)pyrimidin-4-ylamino)-3-methoxy-2-methylphenyl)methanesulfonamide], the pIC50 is 6.00 to 7.00.

The molecule `COc1cc(Nc2ncc(F)c(Nc3cc(F)c(F)cc3NS(C)(=O)=O)n2)cc(OC)c1OC` [Example 174, N-(4,5-difluoro-2-(5-fluoro-2-(3,4,5-trimethoxyphenylamino)pyrimidin-4-ylamino)phenyl)methanesulfonamide] gave a negative-log IC50 (pIC50) of 5.00 to 6.00.

Regarding `COc1ccc(Nc2nc(Nc3ccc(OC)c(OC)c3)ncc2Br)c(NS(C)(=O)=O)c1` [Example 179, N-(2-(5-bromo-2-(3,4-dimethoxyphenylamino)pyrimidin-4-ylamino)-5-methoxyphenyl)methanesulfonamide], the pIC50 was > 7.00.

In the case of `COc1ccc(Nc2nc(Nc3ccc(OC)c(OC)c3)ncc2F)c(NS(C)(=O)=O)c1` [Example 180, N-(2-(2-(3,4-dimethoxyphenylamino)-5-fluoropyrimidin-4-ylamino)-5-methoxyphenyl)methanesulfonamide], the pIC50 is > 7.00.

With `COc1cc(Nc2ncc(F)c(Nc3cccc(C)c3N(C)S(C)(=O)=O)n2)cc(OC)c1OC` [Example 181, N-(2-(5-fluoro-2-(3,4,5-trimethoxyphenylamino)pyrimidin-4-ylamino)-6-methylphenyl)-N-methylmethanesulfonamide], the pIC50 is 6.00 to 7.00.
